In US9096589B2, “Heteroaromatic phenylimidazole derivatives as PDE10A enzyme inhibitors” (H. Lundbeck A/S, priority 2009, dated 2015) one finds IC50 data, which are given here for 33 molecules.

PDE10A, sequence (Q9Y233 716-1055): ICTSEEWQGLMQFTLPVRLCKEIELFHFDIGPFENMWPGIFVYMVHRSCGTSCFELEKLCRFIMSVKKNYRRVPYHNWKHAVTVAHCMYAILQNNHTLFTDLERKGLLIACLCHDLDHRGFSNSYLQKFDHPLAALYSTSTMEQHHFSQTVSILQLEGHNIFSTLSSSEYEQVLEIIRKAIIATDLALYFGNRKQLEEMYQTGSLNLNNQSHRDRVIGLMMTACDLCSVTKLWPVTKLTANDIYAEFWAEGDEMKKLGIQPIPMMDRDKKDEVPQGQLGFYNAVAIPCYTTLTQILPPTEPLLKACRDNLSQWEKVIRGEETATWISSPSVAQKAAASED

The assay addresses PDE10A (Homo sapiens (Human), UniProt Q9Y233). Description: PDE10A inhibition assay. The assay is classed as biochemical. As to the method: Active PDE10A enzyme is prepared in a number of ways for use in PDE assays (Loughney, K. et al. Gene 1999, 234, 109-117; Fujishige, K. et al. Eur J. Biochem. 1999, 266, 1118-1127 and Soderling, S. et al. Proc. Natl. Acad. Sci. 1999, 96, 7071-7076). PDE10A can be expressed as full-length proteins or as truncated proteins, as long as they express the catalytic domain. PDE10A can be prepared in different cell types, for example insect cells or E. coli. An example of a method to obtain catalytically active PDE10A is as follows: The catalytic domain of human PDE10A (amino acids 440-779 from the sequence with accession number NP 006652) is amplified from total human brain total RNA by standard RT-PCR and is cloned into the BamH1 and Xho1 sites of the pET28a vector (Novagen). Expression in coli is performed according to standard protocols. Briefly, the expression plasmids are transformed into the BL21(DE3) E. coli strain, and 50 mL cultures inoculated with the cells allowed to grow to an OD600 of 0.4-0.6 before protein expression is induced with 0.5 mM IPTG. Following induction, the cells are incubated overnight at room temperature, after which the cells are collected by centrifugation. Cells expressing PDE10A are resuspended in 12 mL (50 mM TRIS-HCl-pH8.0, 1 mM MgCl2 and protease inhibitors). The cells are lysed by sonication, and after all cells are lysed, TritonX100 is added according to Novagen protocols.
A PDE10A assay may for example, be performed as follows: The assay is performed in 60 uL samples containing a fixed amount of the relevant PDE enzyme (sufficient to convert 20-25% of the cyclic nucleotide substrate); a buffer (50 mM HEPES7.6; 10 mM MgCl2; 0.02% Tween20), 0.1 mg/ml BSA, 225 pCi of ^3H-labelled cyclic nucleotide substrate, tritium labeled cAMP to a final concentration of 5 nM and varying amounts of inhibitors. Reactions are initiated by addition of the cyclic nucleotide substrate, and reactions are allowed to proceed for one hr at room temperature before being terminated through mixing with 15 uL 8 mg/mL yttrium silicate SPA beads (Amersham). The beads are allowed to settle for one hr in the dark before the plates are counted in a Wallac 1450 Microbeta counter. The measured signal can be converted to activity relative to an uninhibited control (100%) and IC50 values can be calculated using the Xlfit extension to EXCEL.
Consider `Cc1cc(C)n2nc(CCc3nc(-c4ccc(C)o4)cn3C)nc2n1` [5,7-Dimethyl-2-{2-[1-methyl-4-(5-methyl-furan-2-yl)-1H-imidazol-2-yl]-ethyl}-[1,2,4]triazolo[1,5-a]pyrimidine], for which the IC50 (commonly the concentration that gives 50% inhibition) stood at 38 nM.

`Cc1cc(C)n2cc(CCc3nc(-c4cccs4)cn3COCC[Si](C)(C)C)nc2n1` [5,7-Dimethyl-2-{2-[4-thiophen-2-yl-1-(2-trimethylsilanyl-ethoxymethyl)-1H-imidazol-2-yl]-ethyl}-imidazo[1,2-a]pyrimidine]: the IC50 is 9.6 nM. This IC50 lies about 4-fold lower than the previous one. `Cc1cc(C)n2cc(/C=C/c3nc(-c4cccs4)cn3COCC[Si](C)(C)C)nc2n1` [5,7-Dimethyl-2-{(E)-2-[4-thiophen-2-yl-1-(2-trimethylsilanyl-ethoxymethyl)-1H-imidazol-2-yl]-vinyl}-imidazo[1,2-a]pyrimidine]: inhibition was half-maximal at 81 nM (IC50).

`Cc1ncc(C)n2nc(CCc3nc(-c4cnccn4)cn3C)nc12` [5,8-Dimethyl-2-[2-(1-methyl-4-pyrazin-2-yl-1H-imidazol-2-yl)-ethyl]-[1,2,4]triazolo[1,5-a]pyrazine] had an IC50 of 0.52 nM. As for `Cc1ncc(C)n2nc(CCc3nc(-c4cccnc4)cn3C)nc12` [5,8-Dimethyl-2-[2-(1-methyl-4-pyridin-3-yl-1H-imidazol-2-yl)-ethyl]-[1,2,4]triazolo[1,5-a]pyrazine], 8.9 nM corresponded to half-maximal inhibition (IC50). This IC50 lies about 17-fold higher than the previous one. In the case of `Cc1ccc(C)n2nc(CCc3nc(-c4cccnc4)cn3C)nc12` [5,8-Dimethyl-2-[2-(1-methyl-4-pyridin-3-yl-1H-imidazol-2-yl)-ethyl]-[1,2,4]triazolo[1,5-a]pyridine], 5.7 nM corresponded to half-maximal inhibition (IC50). Compared with the last molecule, the IC50 is about 1.6-fold lower. The molecule `Cc1ncc(C)n2nc(CCc3nc(-c4ccncc4)cn3C)nc12` [5,8-Dimethyl-2-[2-(1-methyl-4-pyridin-4-yl-1H-imidazol-2-yl)-ethyl]-[1,2,4]triazolo[1,5-a]pyrazine] gave a half-inhibitory concentration (IC50) of 0.55 nM. In turn, `Cc1ncc(C)n2nc(CCc3nc(-c4cncnc4)cn3C)nc12` [5,8-Dimethyl-2-[2-(1-methyl-4-pyrimidin-5-yl-1H-imidazol-2-yl)-ethyl]-[1,2,4]triazolo[1,5-a]pyrazine] gave an IC50 of 0.44 nM. Turning to `Cc1ncc(C)n2nc(CCc3nc(-c4nccs4)cn3C)nc12` [5,8-Dimethyl-2-[2-(1-methyl-4-thiazol-2-yl-1H-imidazol-2-yl)-ethyl]-[1,2,4]triazolo[1,5-a]pyrazine], the IC50 was found to be 2.7 nM.

In turn, `Cc1ccc(C)n2nc(CCc3nc(-c4nccs4)cn3C)nc12` [5,8-Dimethyl-2-[2-(1-methyl-4-thiazol-2-yl-1H-imidazol-2-yl)-ethyl]-[1,2,4]triazolo[1,5-a]pyridine] registered a half-maximal inhibitory concentration (IC50) of 2.3 nM. For `Cc1ncc(C)n2nc(CCc3nc(-c4cscn4)cn3C)nc12` [5,8-Dimethyl-2-[2-(1-methyl-4-thiazol-4-yl-1H-imidazol-2-yl)-ethyl]-[1,2,4]triazolo[1,5-a]pyrazine], the half-inhibitory concentration (IC50) was determined as 1.29 nM. Compared with the last molecule, the IC50 is about 1.8-fold lower. As for `Cc1ccc(C)n2nc(CCc3nc(-c4cscn4)cn3C)nc12` [5,8-Dimethyl-2-[2-(1-methyl-4-thiazol-4-yl-1H-imidazol-2-yl)-ethyl]-[1,2,4]triazolo[1,5-a]pyridine], the half-inhibitory concentration (IC50) was determined as 0.4 nM. Molecule `Cc1ncc(C)n2nc(CCc3nc(-c4cncs4)cn3C)nc12` [5,8-Dimethyl-2-[2-(1-methyl-4-thiazol-5-yl-1H-imidazol-2-yl)-ethyl]-[1,2,4]triazolo[1,5-a]pyrazine] returned an IC50 of 6.9 nM. `Cc1ncc(C)n2nc(CCc3nc(-c4cccs4)cn3C)nc12` [5,8-Dimethyl-2-[2-(1-methyl-4-thiophen-2-yl-1H-imidazol-2-yl)-ethyl]-[1,2,4]triazolo[1,5-a]pyrazine] registered a half-maximal inhibitory concentration (IC50) of 0.39 nM.

Molecule `Cc1ccc(C)n2nc(CCc3nc(-c4cccs4)cn3C)nc12` [5,8-Dimethyl-2-[2-(1-methyl-4-thiophen-2-yl-1H-imidazol-2-yl)-ethyl]-[1,2,4]triazolo[1,5-a]pyridine] returned an IC50 of 1 nM. This IC50 is about 2.6-fold higher than that of the molecule before. For the molecule `Cc1ccc(-c2cn(C)c(CCc3nc4c(C)ncc(C)n4n3)n2)o1` [5,8-Dimethyl-2-{2-[1-methyl-4-(5-methyl-furan-2-yl)-1H-imidazol-2-yl]-ethyl}-[1,2,4]triazolo[1,5-a]pyrazine], the concentration for half-maximal inhibition (IC50) was found to be 6.8 nM. To `Cc1ccc(-c2cn(C)c(CCc3nc4c(C)ccc(C)n4n3)n2)o1` [5,8-Dimethyl-2-{2-[1-methyl-4-(5-methyl-furan-2-yl)-1H-imidazol-2-yl]-ethyl}-[1,2,4]triazolo[1,5-a]pyridine] belongs 4.2 nM. `Cc1cccc2nc(CCc3nc(-c4cccnc4)cn3C)nn12` [5-Methyl-2-[2-(1-methyl-4-pyridin-3-yl-1H-imidazol-2-yl)-ethyl]-[1,2,4]triazolo[1,5-a]pyridine] came in with an IC50 of 71 nM. To `Cc1cccc2nc(CCc3nc(-c4cncs4)cn3C)nn12` [5-Methyl-2-[2-(1-methyl-4-thiazol-5-yl-1H-imidazol-2-yl)-ethyl]-[1,2,4]triazolo[1,5-a]pyridine] belongs 39 nM; to `Cc1cccc2nc(CCc3nc(-c4cccs4)cn3C)nn12` [5-Methyl-2-[2-(1-methyl-4-thiophen-2-yl-1H-imidazol-2-yl)-ethyl]-[1,2,4]triazolo[1,5-a]pyridine], 9.2 nM. With `CCCn1cc(-c2cccnc2)nc1CCc1nc2cccc(C)n2n1` [5-Methyl-2-[2-(1-propyl-4-pyridin-3-yl-1H-imidazol-2-yl)-ethyl]-[1,2,4]triazolo[1,5-a]pyridine] the figure was 49 nM. Regarding `Cc1cccc2nc(CCc3nc(-c4cccnc4)c[nH]3)nn12` [5-Methyl-2-[2-(4-pyridin-3-yl-1H-imidazol-2-yl)-ethyl]-[1,2,4]triazolo[1,5-a]pyridine], the IC50 is 9.6 nM. This IC50 lies about 5.1-fold lower than the previous one. On to `Cc1cccc2nc(CCc3nc(-c4cccs4)c[nH]3)nn12` [5-Methyl-2-[2-(4-thiophen-2-yl-1H-imidazol-2-yl)-ethyl]-[1,2,4]triazolo[1,5-a]pyridine], for which half-maximal inhibition (IC50) required 0.54 nM. This IC50 lies about 18-fold lower than the previous one. To `Cc1cccc2nc(CCc3nc(-c4ccsc4)c[nH]3)nn12` [5-Methyl-2-[2-(4-thiophen-3-yl-1H-imidazol-2-yl)-ethyl]-[1,2,4]triazolo[1,5-a]pyridine] belongs 5.7 nM; to `Cc1cscc1-c1c[nH]c(CCc2nc3cccc(C)n3n2)n1` [5-Methyl-2-{2-[4-(4-methyl-thiophen-3-yl)-1H-imidazol-2-yl]-ethyl}-[1,2,4]triazolo[1,5-a]pyridine], 45 nM; to `Cc1ccc(-c2c[nH]c(CCc3nc4cccc(C)n4n3)n2)o1` [5-Methyl-2-{2-[4-(5-methyl-furan-2-yl)-1H-imidazol-2-yl]-ethyl}-[1,2,4]triazolo[1,5-a]pyridine], 34 nM.

In turn, `Cc1ccc(-c2cn(COCC[Si](C)(C)C)c(/C=C/c3nc4cccc(C)n4n3)n2)s1` [5-Methyl-2-{(E)-2-[4-(5-methyl-thiophen-2-yl)-1-(2-trimethylsilanyl-ethoxymethyl)-1H-imidazol-2-yl]-vinyl}-[1,2,4]triazolo[1,5-a]pyridine] displayed an IC50 of 210 nM. Take `Cn1cc(-c2cccs2)nc1CCc1nc2c(F)cccn2n1` [8-Fluoro-2-[2-(1-methyl-4-thiophen-2-yl-1H-imidazol-2-yl)-ethyl]-[1,2,4]triazolo[1,5-a]pyridine]: the half-maximal inhibitory concentration (IC50) was found to be 47 nM.

For the molecule `Cn1cc(-c2cncs2)nc1/C=C/c1nc2c(F)cccn2n1` [8-Fluoro-2-[(E)-2-(1-methyl-4-thiazol-5-yl-1H-imidazol-2-yl)-vinyl]-[1,2,4]triazolo[1,5-a]pyridine], the concentration for half-maximal inhibition (IC50) was found to be 300 nM. This IC50 lies about 6.4-fold higher than the previous one. With `Cn1cc(-c2cccs2)nc1/C=C/c1nc2c(F)cccn2n1` [8-Fluoro-2-[(E)-2-(1-methyl-4-thiophen-2-yl-1H-imidazol-2-yl)-vinyl]-[1,2,4]triazolo[1,5-a]pyridine], half-maximal inhibition (IC50) required 100 nM. Compared with the last molecule, the IC50 is about 3-fold lower. Molecule `Cc1ccc(-c2cn(C)c(CCc3nc4c(F)cccn4n3)n2)o1` [8-Fluoro-2-{2-[1-methyl-4-(5-methyl-furan-2-yl)-1H-imidazol-2-yl]-ethyl}-[1,2,4]triazolo[1,5-a]pyridine] yielded an IC50 of 94 nM.

In the case of `Cc1ccc(-c2cn(C)c(/C=C/c3nc4c(F)cccn4n3)n2)o1` [8-Fluoro-2-{(E)-2-[1-methyl-4-(5-methyl-furan-2-yl)-1H-imidazol-2-yl]-vinyl}-[1,2,4]triazolo[1,5-a]pyridine], 520 nM corresponded to half-maximal inhibition (IC50). `COc1cccn2nc(CCc3nc(-c4cncs4)cn3C)nc12` [8-Methoxy-2-[2-(1-methyl-4-thiazol-5-yl-1H-imidazol-2-yl)-ethyl]-[1,2,4]triazolo[1,5-a]pyridine] had an IC50 of 36 nM.
